Reference: patent publication US6159979A, “Bicyclic aryl or a bicyclic heterocyclic ring containing compounds having a combined 5HT1A, 5HT1B and 5HT1D receptor antagonistic activity” (SmithKline Beecham p.l.c., priority 1997, dated 2000)

Tests used:
5-HT1D receptors = molecular target: T1, 5-HT1D receptors (Homo sapiens, UniProt P28221); assay: 5-HT1D receptor binding ([3H]-5-HT, CHO cell homogenate); settings: CHO cells expressing 5-HT1D receptors; [3H]-5-HT (4nM); pH 7.7, 37° C., 45 minutes; read-out: pKi values at 5-HT1D (converted)
T1 construct: expressed in transfected cells; host or cells: CHO
T1 sequence (P28221 whole entry): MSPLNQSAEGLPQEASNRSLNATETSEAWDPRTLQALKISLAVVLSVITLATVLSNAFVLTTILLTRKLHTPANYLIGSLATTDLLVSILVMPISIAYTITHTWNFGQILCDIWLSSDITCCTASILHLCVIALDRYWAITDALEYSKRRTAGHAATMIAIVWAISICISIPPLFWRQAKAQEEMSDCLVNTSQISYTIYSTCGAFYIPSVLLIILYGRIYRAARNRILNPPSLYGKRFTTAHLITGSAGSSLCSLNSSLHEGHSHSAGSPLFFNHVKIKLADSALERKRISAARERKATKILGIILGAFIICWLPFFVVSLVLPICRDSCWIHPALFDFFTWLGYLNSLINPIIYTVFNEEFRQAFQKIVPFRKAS
Protocol: (§1) 5-HT1A, 5-HT1B and 5-HT1D Receptor Binding
(§2) HEK 293 cells expressing 5-HT1A receptors (4×10^7 /ml) were homogenised in Tris buffer and stored in 1 ml aliquots. CHO cells expressing 5-HT1B receptors (4×10^7 cells/ml) were homogenised in Tris buffer and stored in 1.5 ml aliquots. CHO cells expressing 5-HT1D receptors (0.563×10^8 /ml) were homogenised in Tris buffer and stored in 1 ml aliquots.
(§3) 0.4 ml of a cell suspension was incubated with [^3 H]-5-HT (4nM) for 5-HT1B/1D receptors and [^3 H]-8-OH DPAT (1nM) for 5-HT1A receptors in Tris Mg HCl buffer (pH 7.7) and test drug, at 37° C. for 45 minutes. Each test drug was tested at 10 concentrations (0.01 mM to 0.3 nM final concentration), with non-specific binding defined using 0.01 mM 5-HT. The total assay volume was 0.5 ml. Incubation was stopped by rapid filtration using a Packard Filtermate (filters pre-soaked in 0.3% polyethylenimine) and radioactivity measured by Topcount scintillation counting. pKi values were calculated from the IC50 generated by an iterative least squares curve fitting programme.

5-HT1A receptors = molecular target: T2, 5-HT1A receptors (Homo sapiens, UniProt P08908); assay: 5-HT1A receptor binding ([3H]-8-OH DPAT, HEK 293 cell homogenate); settings: HEK 293 cells expressing 5-HT1A receptors; [3H]-8-OH DPAT (1nM); pH 7.7, 37° C., 45 minutes; read-out: pKi values at 5-HT1A (converted)
T2 construct: expressed in transfected cells; host or cells: HEK 293
T2 sequence (P08908 1-422): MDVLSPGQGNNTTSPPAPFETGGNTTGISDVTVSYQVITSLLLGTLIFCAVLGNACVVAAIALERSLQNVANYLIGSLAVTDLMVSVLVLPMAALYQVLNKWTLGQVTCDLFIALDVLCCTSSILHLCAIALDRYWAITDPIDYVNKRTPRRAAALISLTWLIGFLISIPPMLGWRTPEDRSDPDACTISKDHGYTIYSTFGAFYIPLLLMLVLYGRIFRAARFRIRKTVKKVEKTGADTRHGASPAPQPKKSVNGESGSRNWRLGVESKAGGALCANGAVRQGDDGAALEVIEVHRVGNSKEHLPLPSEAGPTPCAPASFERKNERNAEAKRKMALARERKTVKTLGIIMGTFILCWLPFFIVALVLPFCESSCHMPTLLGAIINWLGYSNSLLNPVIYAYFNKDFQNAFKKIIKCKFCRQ
Protocol: as §1, §2, §3

5-HT1B receptors = molecular target: T3, 5-HT1B receptors (Homo sapiens, UniProt P28222); assay: 5-HT1B receptor binding ([3H]-5-HT, CHO cell homogenate); settings: CHO cells expressing 5-HT1B receptors; [3H]-5-HT (4nM); pH 7.7, 37° C., 45 minutes; read-out: pKi values at 5-HT1B (converted)
T3 construct: expressed in transfected cells; host or cells: CHO
T3 sequence (P28222 whole entry): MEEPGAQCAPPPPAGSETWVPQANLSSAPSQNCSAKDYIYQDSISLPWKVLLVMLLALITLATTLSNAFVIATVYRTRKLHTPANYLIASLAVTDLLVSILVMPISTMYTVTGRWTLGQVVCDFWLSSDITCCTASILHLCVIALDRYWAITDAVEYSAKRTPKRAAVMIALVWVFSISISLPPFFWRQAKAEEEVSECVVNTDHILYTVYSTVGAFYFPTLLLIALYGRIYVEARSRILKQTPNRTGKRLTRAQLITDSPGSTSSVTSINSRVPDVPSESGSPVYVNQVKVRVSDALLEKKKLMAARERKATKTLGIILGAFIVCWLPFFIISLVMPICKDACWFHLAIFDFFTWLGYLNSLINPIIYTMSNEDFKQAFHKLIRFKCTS
Protocol: as §1, §2, §3

Measured: Ki

COc1ccc(NC(=O)Cc2ccc(-c3cccnc3)c3ccccc23)cc1N1CCN(C)CC1 [Example 28, N-[4-Methoxy-3-(4-methylpiperazin-1-yl)phenyl]-4-(pyridin-3-yl)naphth-1-ylacetamide]
< 10 nM: all assays above

COc1ccc(NC(=O)Nc2cccc3c(-c4cccc(C(C)=O)c4)cccc23)cc1N1CCN(C)CC1 [Example 40, N-[5-(3-Acetylphenyl)naphth-1-yl]-N'-[4-methoxy-3-(4-methylpiperazin-1-yl)phenyl]urea]
< 10 nM: all assays above

CN1CCN(c2cc(NC(=O)Nc3ccc(-c4ccncc4)c4ccccc34)ccc2Cl)CC1 [Example 11, N-[4-Chloro-3-(4-methylpiperazin-1-yl)phenyl]-N'-[4-(pyridin-4-yl)naphth-1-yl]urea]
< 10 nM: all assays above

COc1ccc(NC(=O)Nc2cccc3c(-c4ccccc4)cccc23)cc1N1CCN(C)CC1 [Example 33, N-[4-Methoxy-3-(4-methylpiperazin-1-yl)phenyl]-N'-[5-phenylnaphth-1-yl]urea]
< 10 nM: all assays above

COc1ccc(NC(=O)Cc2ccc(-c3ccncc3)c3ccccc23)cc1N1CCN(C)CC1 [Example 10, N-[4-Methoxy-3-(4-methylpiperazin-1-yl)phenyl]-4-(pyridin-4-yl)naphth-1-ylacetamide]
< 10 nM: all assays above

CN1CCN(c2cc(NC(=O)Cc3ccc(-c4ccncc4)c4ccccc34)ccc2Br)CC1 [Example 38, N-[4-Bromo-3-(4-methylpiperazin-1-yl)phenyl]-4-(pyridin-4-yl)naphth-1-ylacetamide]
< 10 nM: all assays above
